{"source": "patent US20060111335A1", "about": "“Photoactivated anti-viral and anti-cancer agent” (priority 2002, published 2006)", "key": {"CT DNA [1]": {"test_system": "CT DNA", "assay": "Dark interaction of DPPZPHEN with CT DNA, UV-Vis absorption titration at 380 nm", "type": "binding, calf", "details": "CT DNA, from molar extinction coefficient at 380 nm", "protocol": "(§1) General. The quantity of DNA was determined by the Burton assay (Burton, Biochem. J., 62:315-322 (1956)), and its rhodium content was quantitated using flame atomic absorption spectroscopy (AA). The equilibrium constant for interaction between DPPZPHEN and CT-DNA in the dark was calculated from UV-Vis absorption titration measurements at 380 nm (Wolfe et al., Biochem., 26:6392-6396 (1987); Schemel et al., Biopolymers, 10:465-480 (1971)). Cell viability was determined using the MTT assay (Denizot et al., J. Immunol. Methods, 89:271-277 (1986)). SINV was purified on sucrose gradients as previously described (Owen et al., J. Virol., 70:2757-2763 (1996)). The titer was generally 7-8 log10 pfu/mL at the beginning of each experiment.\nInteraction of DPPZPHEN with DNA. […] An intrinsic binding constant of […] 3.4×10^5 M^−1 was calculated using the molar extinction coefficient at the λmax (380 nm) at each titration point."}, "CT DNA [2]": {"test_system": "CT DNA", "assay": "Photolysis with calf thymus DNA: rhodium covalently bound to DNA", "type": "binding", "details": "irradiation >330 nm", "protocol": "as §1, with “(1996)).” for “(1996)). The titer was generally 7-8 log10 pfu/mL at the beginning of each experiment.”\nPhotolysis with Calf Thymus DNA (CT DNA). Solutions consisting of 1 mL aliquots of 0.58 mM DPPZPHEN and 2.7 mg/mL CT DNA were irradiated with λ>330 nm light. After irradiation, the solutions were purified by exhaustive dialysis and three cycles of precipitation and resuspension. The DNA and Rh content were determined and/or the DNA was utilized in size exclusion chromatography experiments (Mahnken et al., J. Am. Chem. Soc., 114:9253-9265 (1992))."}, "SINV genomic RNA": {"test_system": "SINV genomic RNA", "assay": "Infectivity of genome RNA from treated SINV transfected into BHK cells, plaque assay", "type": "cell-based, Sindbis virus", "details": "irradiated 60 minutes, >330 nm", "protocol": "Photolysis with SINV. DPPZPHEN/SINV solutions were prepared by adding a 0.3 mL aliquot of a 600 μM DPPZPHEN stock solution in PBS to 3 mL of purified virus at a concentration of 7-8 log10 pfu/mL and bringing the total volume to 4 mL. The DPPZPHEN/SINV solutions were incubated for 2 hours prior to irradiation, following which 3 mL of the solution was irradiated in quartz cuvettes with 355 nm light under a constant stream of nitrogen with stirring Aliquots of 100 μL were withdrawn over time and analyzed for virus infectivity. The inactivation rate constant was calculated using simple hit theory (Hiatt, Bacteriol. Rev., 28:150-163 (1964); Houghtaling et al., Photochem. Photobiol., 71:20-28 (2000)). For the studies measuring infectivity of genome RNA, a 6.9 μL aliquot of 0.623 M DPPZPHEN stock solution in DMSO was added to a 100 μL of TE12 wild type […] solution (10 log10 pfu/mL) to obtain a 40 mM DPPZPHEN/virus solution. Aliquots of 50 μL were placed into 250 μL inserts, incubated for 2 hours, and either kept in the dark or irradiated for 60 minutes with light >330 nm. At the completion of the experiment all the samples were diluted with 6 mL 1×PBS buffer and precipitated for 2 hours at 4° C. with 10% PEG+NaCl (200 mM). […]"}, "cells": {"test_system": "cells", "assay": "Phototoxicity, summary statement of Example XII", "type": "cell-based"}, "KB cells": {"test_system": "KB cells", "assay": "Phototoxicity to KB tumor cells, MTT assay", "details": "dark, zero time point", "experimental": "Photolysis with Tumor Cells. […] At the beginning of an experiment media was removed from all plates and the cells were washed with 1 mL of PBS or Hank's salt solution. Drug solution (2 mL) or buffer solution (2 mL) was added to each dish. […] Cells were incubated, with or without metal complex, for 4 hours. After incubation, the solutions were removed from the dishes and the dishes were washed with 1 mL of PBS or Hank's salt solution. A fresh 1 mL of PBS or Hank's salt solution was added to each dish and these were placed on a turntable that sat on the top part of the photolysis chamber. […] The plates were then incubated for 40-48 hours before a determination of the extent of cell toxicity by MTT assay.\nCells were incubated in 75 cm^2 culture flasks. They were grown in Dulbecco's Modified Eagles Medium (D-MEM) supplemented with 10% heat inactivated fetal bovine serum (FBS), 1% L-glutamine-penicillin-streptomycin and 1% amphotericin-B. When cells were not plated for use in an experiment, they were transferred when they were 75-100% confluent using the following procedure. Media was decanted from the flask. Cells were rinsed 1-2 times with 10 mL of Hank's Balanced salt solution. […] Trypsin-EDTA was then decanted and the cells were released from the wall of the flask by tapping the side of the flask. Released cells were suspended in 5 mL media and 1 mL of this suspension was placed in a new culture flasks containing 20 mL of fresh media. The remaining cells were discarded. A culture flask can be used for 3 transfers.\nUsually 16-24 hours before a photolysis experiment, cells were plated in 35×10 mm tissue culture dishes and incubated at 37° C. until the experiment was begun. Cells were about 75-100% confluent in the 75 cm^2 culture flask when plated. After being washed and released from the flask as described above, cells were suspended in 40 mL media and 1.5 mL of suspension was placed in each dish.\nThe concentration of the solution was 70 μM.\nThe cell dishes were incubated with drug or Hanks balanced salt solution (1 mL) for 3 hours. After incubation, solutions were decanted from the plates and 1 mL of Hank's Balanced salt solution were placed in each. […] Following photolysis, Hank's Balanced salt solutions were decanted and 1 mL of fresh media was placed in each plate.\nPlates were incubated for 65 hours and then analyzed for cell survival by MT assay. 5 mg/mL MTT solution in water was prepared and 100 μL of this solution was added to each plate and the plates were incubated for 1.5 hours. Purple crystals formed from live cells. Media was gently removed from plates using a Pasteur pipette, the purple crystals that remained at the bottom of the dish were dissolved in 6 mL of isopropanol.\nPhototoxicity studies with long wavelength light (>400 nm). […]"}}, "data": [{"smiles": "[Cl-].[Cl][Rh+]12([Cl])([N]3C=CC=c4ccc5c(c43)[N]1C=CC=5)[N]1C=CC=c3c1c1c(c4nc5ccccc5nc34)=CC=C[N]12", "note": "[DPPZPHEN, cis-dichloro(dipyrido[3,2a-2′3′c]phenazine)(1,10-phenantroline) rhodium(III) chloride]", "values": [{"measurement": "intrinsic binding constant (Keq, association constant with DNA)", "setting": "CT DNA [1]", "value": 340000, "unit": "M⁻¹"}, {"measurement": "bases per bound molecule of Rh", "setting": "CT DNA [2]", "value": "~18", "unit": "bases"}, {"measurement": "plaque formation in cells that received RNA from virus irradiated with compound", "setting": "SINV genomic RNA", "value": "no plaque formation"}, {"measurement": "phototoxicity", "setting": "cells", "value": "are phototoxic"}, {"measurement": "cell toxicity in the absence of light", "setting": "KB cells", "value": "no appreciable degree of cell toxicity"}]}]}
